Assays:
[1] = molecular target: T1, MsArr (Mycolicibacterium smegmatis, UniProt A0QRS5, V47I/Y72F); assay: fluorescent NAD+ conversion assay; assay type: biochemical
T1 construct: gene MSMEG_1221; V47I Y72F variant gene; His6-MBP tag cut off with TEV; E. coli BL21(DE3)

[2] = molecular target: T2, PaArr (Pseudomonas aeruginosa, UniProt O87490); assay: fluorescent NAD+ conversion assay; assay type: biochemical
T2 construct: gene arr-2; class 1 integron gene; codon-optimized; His6-MBP tag cut off with TEV; E. coli BL21(DE3); monomer

[3] = molecular target: T3, MaArr (Mycobacteroides abscessus, UniProt B1MH05); assay: fluorescent NAD+ conversion assay; assay type: biochemical
T3 construct: gene MAB_0591; chromosomal gene; codon-optimized; His6-MBP tag cut off with TEV; E. coli BL21(DE3)

[4] = tested on: T4, SmArr; assay: fluorescent NAD+ conversion assay; assay type: biochemical, Stenotrophomonas maltophilia; conditions: 1 µM NAD+, 2 µM rifampicin, 50 mM PIPES pH 7.5, 0.01% Triton X-100, room temperature
T4 construct: gene arr; class 1 integron gene; codon-optimized; His6-MBP tag cut off with TEV; E. coli BL21(DE3)

[5] = molecular target: T2, PaArr; assay: fluorescent NAD+ conversion assay; assay type: biochemical; remark: listed apart in the source
[6] = molecular target: T3, MaArr; assay: fluorescent NAD+ conversion assay; assay type: biochemical; remark: listed apart in the source
[7] = molecular target: PARP2 (Homo sapiens, UniProt Q9UGN5); assay: human ADP-ribosyltransferase activity panel; assay type: biochemical
[8] = molecular target: T5, TNKS2 (Homo sapiens, UniProt Q9H2K2); assay: human ADP-ribosyltransferase activity panel; assay type: biochemical
T5 sequence (Q9H2K2 1-1166): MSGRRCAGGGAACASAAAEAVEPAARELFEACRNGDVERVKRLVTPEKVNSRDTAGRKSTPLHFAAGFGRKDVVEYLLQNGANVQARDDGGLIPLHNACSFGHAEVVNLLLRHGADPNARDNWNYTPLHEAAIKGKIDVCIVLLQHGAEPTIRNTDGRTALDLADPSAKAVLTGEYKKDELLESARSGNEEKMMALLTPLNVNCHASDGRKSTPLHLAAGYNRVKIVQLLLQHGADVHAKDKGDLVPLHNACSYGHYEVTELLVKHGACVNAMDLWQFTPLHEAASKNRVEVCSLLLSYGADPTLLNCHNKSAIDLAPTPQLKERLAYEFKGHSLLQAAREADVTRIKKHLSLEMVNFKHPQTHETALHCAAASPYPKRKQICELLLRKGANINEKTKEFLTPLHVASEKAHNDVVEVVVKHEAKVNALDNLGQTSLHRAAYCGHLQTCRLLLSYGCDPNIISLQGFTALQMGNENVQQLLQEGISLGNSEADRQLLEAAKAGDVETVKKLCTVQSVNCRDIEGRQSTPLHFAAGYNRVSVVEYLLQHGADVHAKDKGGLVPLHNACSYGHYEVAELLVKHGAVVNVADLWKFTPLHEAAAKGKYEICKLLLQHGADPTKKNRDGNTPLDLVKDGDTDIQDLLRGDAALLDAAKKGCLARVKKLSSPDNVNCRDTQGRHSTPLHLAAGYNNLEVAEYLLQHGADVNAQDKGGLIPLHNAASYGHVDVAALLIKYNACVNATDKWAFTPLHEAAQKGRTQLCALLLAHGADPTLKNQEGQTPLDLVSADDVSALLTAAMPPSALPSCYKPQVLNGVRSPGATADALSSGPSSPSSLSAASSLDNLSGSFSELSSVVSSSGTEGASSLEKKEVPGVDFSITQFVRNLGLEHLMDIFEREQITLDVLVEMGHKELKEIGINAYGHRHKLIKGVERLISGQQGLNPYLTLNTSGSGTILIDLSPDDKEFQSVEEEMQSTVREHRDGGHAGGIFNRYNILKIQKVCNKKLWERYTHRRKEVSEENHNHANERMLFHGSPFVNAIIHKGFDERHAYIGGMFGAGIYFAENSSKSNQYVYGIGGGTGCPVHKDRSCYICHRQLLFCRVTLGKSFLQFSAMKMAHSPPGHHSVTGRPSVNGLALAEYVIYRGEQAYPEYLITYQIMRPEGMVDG

[9] = molecular target: T2, PaArr; assay: X-ray crystal structure, […] Å; assay type: binding; conditions: crystal with 1 mM rifampicin; an additional rifampicin molecule at crystal contacts, likely artifact

| Structure (SMILES) | IC50 [1] | IC50 [4] | IC50 [5] | also measured |
| --- | --- | --- | --- | --- |
| Nc1nc2ccc(Cl)cc2c(O)c1-c1ccccc1 [compound 1] | 1.3 µM |  |  | inhibition at 100 µM [2]: < 50%; inhibition at 100 µM [3]: < 50% |
| NS(=O)(=O)c1ccc(-c2nc3ccccc3c(=O)[nH]2)cc1 [compound 2] | 2 µM | 10 to 100 µM | 10 to 100 µM | IC50 [6]: 10 to 100 µM; IC50 [7]: showed strong inhibition of TNKS2 and PARP2 as expected (Figure 3E); IC50 [8]: showed strong inhibition of TNKS2 and PARP2 as expected (Figure 3E) |
| O=c1c(O)c(-c2cc(O)c(O)c(O)c2)oc2cc(O)cc(O)c12 [compound 7] |  | 1.7 µM | 0.47 µM |  |
| Oc1ccc(O)c2c1sc1nncn12 [compound 13, 13] |  | 1.2 µM |  |  |
| CO[C@H]1/C=C/O[C@@]2(C)Oc3c(C)c(O)c4c(O)c(c(/C=N/N5CCN(C)CC5)c(O)c4c3C2=O)NC(=O)/C(C)=C\C=C\[C@H](C)[C@H](O)[C@@H](C)[C@@H](O)[C@@H](C)[C@H](OC(C)=O)[C@@H]1C [rifampicin] |  |  |  | X-ray crystal structure, 1.4 Å [9]: In the crystal structure of PaArr, an additional rifampicin molecule stacks against these two areas |

Source: paper doi:10.1101/2025.02.20.639278v1, “Discovery of inhibitors for bacterial Arr enzymes ADP-ribosylating and inactivating rifamycin antibiotics” (biorxiv, 2025)
